Test system: potato seeds
Assay: Dry fog treatment of potato seeds to prevent sprouting, H2O2 with Ag and Cu ion (Example 19)
Assay type: in vivo
Settings: H2O2 500 PPM, Ag ion 0, Cu ion 0; 90% RH, 10° C.
Excerpt: The results were as follows:

OO [H2O2, hydrogen peroxide]
Sprouting (%) one month: 8%
Sprouting (%) three months: 32%
Sprouting (%) two months: 22%
